Target: T1, OR4S2 (Homo sapiens, UniProt Q8NH73)
T1 construct: expressed in transfected cells
T1 sequence (Q8NH73 1-311): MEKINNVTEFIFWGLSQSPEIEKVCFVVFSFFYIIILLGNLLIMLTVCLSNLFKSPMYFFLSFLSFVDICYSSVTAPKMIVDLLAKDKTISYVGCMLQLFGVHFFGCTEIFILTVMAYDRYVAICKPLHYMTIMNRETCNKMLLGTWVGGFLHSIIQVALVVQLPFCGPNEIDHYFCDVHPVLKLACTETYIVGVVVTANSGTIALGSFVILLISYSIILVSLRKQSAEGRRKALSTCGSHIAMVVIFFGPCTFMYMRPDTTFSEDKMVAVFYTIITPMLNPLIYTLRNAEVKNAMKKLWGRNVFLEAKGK
Assay: Inhibition of malodor compound induced olfactory receptor activity in stable cell lines
Format: cell-based
Conditions: inhibition of OR4S2 activity in presence of a single activating concentration of DMTS

EC50: 90.3 µM
SMILES: CCCCCc1cc(C)ccn1

Reference: US12048783B2, “2,4-disubstituted pyridines as malodor counteracting ingredients” (FIRMENICH SA, priority 2017, dated 2024)
